In patent USRE37781E1, “Substituted cyclic carbonyls and derivatives thereof useful as retroviral protease inhibitors” (DuPont Pharmaceuticals Company, priority 1991, dated 2002):
≈ marks a conversion by molar mass, not a printed value. Like-named read-outs stand apart in the source and are kept apart here.

Assays:
[1] = biological target: single-chain tethered dimer of HIV protease (Human immunodeficiency virus 1, UniProt P04585); assay: biochemical; type: biochemical; design: fused on or other part: A second copy of the same protease unit is joined to the first by a short peptide tether, giving one polypeptide
HIV-1 (RF) in MT-2 cells = assay: microbe, parasite or virus in culture; type: cell-based
Method in brief: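 HIV-1 laboratory strains (RF, MN, IIIB) grown in H9 cells in RPMI 1640 with 5% FCS; infections in MT-2 cells. Viral RNA quantified by hybridization with biotinylated gag/pol capture probes on streptavidin plates and alkaline phosphatase-conjugated reporter probes; BH10 gag-pol in vitro transcripts serve as RNA standards.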

[2] = read-out: HPLC K1, Table 2d, HIV protease inhibition, HPLC method
[3] = Human immunodeficiency virus 1, MT2, 48 h, Table 2d, HIV RNA assay, read-out: IC90
[4] = read-out: HPLC K1, Table 2d, class symbols
[5] = Human immunodeficiency virus 1, MT2, 48 h, Table 2d, class symbols, read-out: IC90
[6] = Table 2d, HIV protease inhibition, HPLC method, read-out: HPLC K1
[7] = HIV protease inhibition, HPLC method, Table 2d, read-out: HPLC K1
[8] = HIV RNA assay, HIV-1 infected MT-2 cells, Table 2d

## Nc1ccc(CC2C(O)C(O)C(Cc3ccccc3N)N(CC3CC3)C(=O)N2CC2CC2)cc1 (stereo not shown) [Example 20E]
[1]; read-out: HPLC Ki, Table 2i
  Ki: < 10 nM
HIV-1 (RF) in MT-2 cells; Human immunodeficiency virus 1, MT2, Table 2i, read-out: IC90
  IC90: < 10 µg/mL

## O=C1N(Cc2cccc(OCC(O)CO)c2)C(Cc2ccccc2)C(O)C(O)C(Cc2ccccc2)N1Cc1cccc(OCC(O)CO)c1 (stereo not shown) [10T]
[1]; Table 2d, class symbols, read-out: HPLC K1
  Ki: < 10 nM
HIV-1 (RF) in MT-2 cells; Table 2d, class symbols
  IC90: +++ (+++=<10 μg/mL)

## O=C1N(Cc2cccc(C#CCO)c2)C(Cc2ccccc2)C(O)C(O)C(Cc2ccccc2)N1Cc1cccc(C#CCO)c1 (stereo not shown) [Example 15XL]
[1]; [2]
  Ki: < 10 nM
HIV-1 (RF) in MT-2 cells; [3]
  IC90: < 10 µg/mL

## O=C1N(Cc2cccc(-c3cn[nH]c3)c2)C(Cc2ccccc2)C(O)C(O)C(Cc2ccccc2)N1Cc1cccc(-c2cn[nH]c2)c1 (stereo not shown) [Example 15BN]
[1]; [2]
  Ki: < 10 nM
HIV-1 (RF) in MT-2 cells; [3]
  IC90: < 10 µg/mL

## N#CCCCCN1C(=O)N(CCCCC#N)C(Cc2ccccc2)C(O)C(O)C1Cc1ccccc1 (stereo not shown) [15FD]
[1]; read-out: HPLC K1, HIV protease inhibition, HPLC method, Table 2d
  Ki: 10 to 1000 nM
HIV-1 (RF) in MT-2 cells; Human immunodeficiency virus 1, MT2, 48 h, HIV RNA assay, HIV-1 infected MT-2 cells, Table 2d, read-out: IC90
  IC90: 10 to 100 µg/mL (≈ 20.5 to 205 µM)

## CSCCCCCN1C(=O)N(CCCCCO)C(Cc2ccccc2)C(O)C(O)C1Cc1ccccc1 (stereo not shown) [Example 15VJ]
[1]; [4]
  Ki: 10 to 1000 nM
HIV-1 (RF) in MT-2 cells; [5]
  IC90: < 10 µg/mL

## O=S1(=O)N(Cc2ccccc2)C(Cc2ccccc2)C(O)C(O)C(Cc2ccccc2)N1Cc1ccccc1 (stereo not shown) [23I]
[1]; Table 2m, read-out: HPLC Ki
  Ki: 10 to 1000 nM
HIV-1 (RF) in MT-2 cells; Table 2m
  IC90: +++ (+++=<10 μg/mL)

## O=S1(=O)N(Cc2ccc(OCc3ccccc3)cc2)C(Cc2ccccc2)C(O)C(O)C(Cc2ccccc2)N1Cc1ccc(OCc2ccccc2)cc1 (stereo not shown) [23J]
[1]; Table 2m, read-out: HPLC Ki
  Ki: > 1000 nM
HIV-1 (RF) in MT-2 cells; Table 2m
  IC90: ++ (++=10 to 100 μg/mL)

## O=C(c1cccc(CN2C(=O)N(Cc3cccc(C(=O)c4ncc[nH]4)c3)C(Cc3ccccc3)C(O)C(O)C2Cc2ccccc2)c1)c1ncc[nH]1 (stereo not shown) [Example 15XJ]
[1]; [2]
  Ki: < 10 nM
HIV-1 (RF) in MT-2 cells; [3]
  IC90: < 10 µg/mL

## O=C1N(Cc2ccc(O)cc2)C(Cc2ccccc2)C(O)C(O)C(Cc2ccccc2)N1Cc1cccc(-c2cc[nH]n2)c1 (stereo not shown) [15CA]
[1]; [2]
  Ki: < 10 nM
HIV-1 (RF) in MT-2 cells; [3]
  IC90: < 10 µg/mL

## COC(=O)Cc1cccc(CN2C(=O)N(Cc3cccc(CC(=O)OC)c3)C(Cc3ccccc3)C(O)C(O)C2Cc2ccccc2)c1 (stereo not shown) [15DW]
[1]; [6]
  Ki: < 10 nM
HIV-1 (RF) in MT-2 cells; Table 2d, HIV RNA assay
  IC90: +++ (+++=<10 μg/mL)

## C=CCN1C(Cc2ccccc2)C(O)C(O)C(Cc2ccccc2)N(CC=C)S1(=O)=O (stereo not shown) [23E]
[1]; Table 2m, read-out: HPLC Ki
  Ki: 10 to 1000 nM
HIV-1 (RF) in MT-2 cells; Table 2m
  IC90: +++ (+++=<10 μg/mL)

## O=C1N(CCCCC(O)CBr)C(Cc2ccccc2)C(O)C(O)C(Cc2ccccc2)N1CCCCC(O)CBr (stereo not shown) [Example 13G]
[1]; [4]
  Ki: < 10 nM
HIV-1 (RF) in MT-2 cells; [5]
  IC90: < 10 µg/mL

## O=C1N(CCCCCO)C(Cc2ccccc2)C(O)C(O)C(Cc2ccccc2)N1Cc1ccc(CO)cc1 (stereo not shown) [Example 15VK]
[1]; [4]
  Ki: < 10 nM
HIV-1 (RF) in MT-2 cells; [5]
  IC90: < 10 µg/mL

## CNC(=O)OCCCCCN1C(=O)N(CCCCCOC(=O)NC)C(Cc2ccccc2)C(O)C(O)C1Cc1ccccc1 (stereo not shown) [15EK]
[1]; [6]
  Ki: 10 to 1000 nM
HIV-1 (RF) in MT-2 cells; Table 2d, HIV RNA assay
  IC90: ++ (++=10 to 100 μg/mL)

## O=C1NC(Cc2ccccc2)C(O)C(O)C(Cc2ccccc2)N1CCCCCCCO (stereo not shown) [Example 12o]
[1]; [4]
  Ki: 10 to 1000 nM
HIV-1 (RF) in MT-2 cells; [5]
  IC90: 10 to 100 µg/mL (≈ 22.7 to 227 µM)

## O=C(NCCCCCN1C(=O)N(CCCCCNC(=O)c2cc(F)cc(F)c2)C(Cc2ccccc2)C(O)C(O)C1Cc1ccccc1)c1cc(F)cc(F)c1 (stereo not shown) [15FG]
[1]; [7]
  Ki: 10 to 1000 nM
HIV-1 (RF) in MT-2 cells; [8]
  IC90: ++/+ (The ++/+ is used in the cases where an IC90 was determined to be >50 μg/mL)

## O=C1N(Cc2cccc(CO)c2)C(Cc2ccc(F)c(F)c2)C(O)C(O)C(Cc2ccc(F)c(F)c2)N1Cc1cccc(CO)c1 (stereo not shown) [20AA]
[1]; Table 2i, read-out: HPLC Ki
  Ki: < 10 nM
HIV-1 (RF) in MT-2 cells; Table 2i
  IC90: +++ (+++=<10 μg/mL)

## O=C1N(Cc2ccc(CO)cc2)C(Cc2ccc(F)c(F)c2)C(O)C(O)C(Cc2ccc(F)c(F)c2)N1Cc1ccc(CO)cc1 (stereo not shown) [20AB]
[1]; Table 2i, read-out: HPLC Ki
  Ki: < 10 nM
HIV-1 (RF) in MT-2 cells; Table 2i
  IC90: +++ (+++=<10 μg/mL)

## Cl.NCC(=O)Nc1cccc(CN2C(=O)N(Cc3ccc(CO)cc3)C(Cc3ccccc3)C(O)C(O)C2Cc2ccccc2)c1 (stereo not shown) [15XT]
[1]; [6]
  Ki: < 10 nM
HIV-1 (RF) in MT-2 cells; Table 2d, HIV RNA assay
  IC90: +++ (+++=<10 μg/mL)

## Cl.Cl.O=C(CN1CCOCC1)NCCCCCN1C(=O)N(CCCCCNC(=O)CN2CCOCC2)C(Cc2ccccc2)C(O)C(O)C1Cc1ccccc1 (stereo not shown) [15FE]
[1]; [7]
  Ki: 10 to 1000 nM
HIV-1 (RF) in MT-2 cells; [8]
  IC90: ++/+ (The ++/+ is used in the cases where an IC90 was determined to be >50 μg/mL)

## O=C1N(Cc2cccc(O)c2)C(Cc2ccccc2)C(O)C(O)C(Cc2ccccc2)N1Cc1ccc2[nH]nnc2c1 (stereo not shown) [15DR]
[1]; [6]
  Ki: < 10 nM
HIV-1 (RF) in MT-2 cells; Table 2d, HIV RNA assay
  IC90: +++ (+++=<10 μg/mL)

## O=C1N(Cc2cccc(CNO)c2)C(Cc2ccccc2)C(O)C(O)C(Cc2ccccc2)N1Cc1cccc(CNO)c1 (stereo not shown) [Example 9B]
[1]; [4]
  Ki: 10 to 1000 nM
HIV-1 (RF) in MT-2 cells; [5]
  IC90: < 10 µg/mL
